The source of these data is publication PMC3664942 (Physical chemistry chemical physics : PCCP, 2013).

Experiment [1] deals with metal-free Aβ1-40. The following applies: read-out: Kd relative to Aβ monomer; absence of metal ions; cited from earlier work.
Experiment [2] relates to Aβ1-40. Kind of experiment: nESI-IM-MS neuropeptide screen for binding with Aβ1-40. The following applies: for Complex formation with Aβ1-40 detected by nESI-IM-MS: 20 μM Aβ1-40, one equivalent of neuropeptide, pH 6.9, 1 h on ice; for Aβ complexes detected by IM-MS: neuropeptide added in large excess in solution.
The test system of experiment [3] is hippocampal neurons. The following applies: μM concentrations; cited from earlier work.

Regarding (–)-epigallocatechin-3-gallate [EGCG], the Kd in experiment [1] was roughly 60 µM.

As for Somatostatin 14, in experiment [2], the “Complex formation with Aβ1-40 detected by nESI-IM-MS” value (“Complex formation” below) was “not evident” and the “Aβ complexes detected by IM-MS” value is “No Aβ complexes were detected”. On to galanin, for which the “Complex formation” value in experiment [2] was “detected”. For the substance neurotensin, in experiment [2], the “Complex formation” value was “not evident” and the “Aβ complexes detected by IM-MS” value is “No Aβ complexes were detected”. physalaemin [reference compound]: in experiment [3], the “Inhibition of Aβ-induced neurotoxicity” value is “inhibitors of Aβ-induced neurotoxicity”. As for substance P, the “Inhibition of Aβ-induced neurotoxicity” value in experiment [3] was “inhibitors of Aβ-induced neurotoxicity”. In experiment [2], the “Complex formation” value is recorded as “not evident” and the “Aβ complexes detected by IM-MS” value is on record as “No Aβ complexes were detected”.

As usually defined, the Kd is a measure of binding affinity in units of concentration.
